Structures can show the parent of a compound that is named as a salt.
What was measured:
[1] = Solubility in water at the indicated pH; type: physicochemical
From the text: The following Table 2 reports the solubility in water at the indicated pH of a representative compound of the invention (R,S)-2-amino-4-(3',4'-difluorophenyl)-4-oxo-2-butanoic acid hydrochloride (PNU 156830) in comparison with the known reference compound of WO 95/03271: (R,S)-2-amino-4-(3',4'-dichlorophenyl)-4-oxo-butanoic acid hydrochloride (internal code: PNU 156561).

kynurenine-3-hydroxylase [2] = target: T1, kynurenine-3-hydroxylase (Rattus norvegicus, UniProt O88867); experiment: Kynurenine-3-hydroxylase assay in the rat liver (mitochondrial extract); type: biochemical; design: Rat liver mitochondrial extract was used as enzymatic preparation for this assay; from tissue; host or cells: rat liver mitochondrial extract; details: 0.025 mM L-kynurenine, 37° C., 30 min, read-out: Enzyme Inhibition (Liver) IC50
Description: Kynurenine-3-hydroxylase Assay in the Rat Liver
The assay for kynurenine 3-hydroxylase was based on the enzymatic synthesis of tritiated water during the hydroxylation reaction. Radiolabeled water was quantified following selective adsorption of the isotopic substrate and its metabolite with activated charcoal.
Rat liver mitochondrial extract was used as enzymatic preparation for this assay.
The assay for kynurenine 3-hydroxylase activity was carried out at 37° C. for a time of 30 min. The reaction mixture of a total volume of […] was constituted of […] of suspended extract, 100 mM Tris/Cl buffer pH 8.1, 10 mM EDTA, 100 mM KCl, 0.8 mM NADPH, 0.025 mM L-kynurenine, […] L-(3,5-^3 H)Kynurenine (10 Ci/mmol) and […] of different concentration of inhibitor solutions. After the incubation the reaction was terminated by the addition of 1 mL of 7.5% (w/v) activated charcoal, vortexed and centrifugated for 7 min.
A […] aliquot of supernatant was counted by scintillation spectroscopy in 5 ml of liquid scintillation.

kynurenine-3-hydroxylase [3] = target: T1, kynurenine-3-hydroxylase; experiment: Kynurenine-3-hydroxylase assay in the rat brain; type: biochemical; design: from tissue; details: rat brain homogenate, 50 μM L-kynurenine, 60 min; read-out: Enzyme Inhibition (Brain) IC50
Description: Kynurenine-3-hydroxylase Assay in the Rat Brain
Brain was homogenized in ice-cold 0.32 M sucrose and centrifuged at 12000×g for 30 min at 4° C. The pellet was washed three times with 0.32 M sucrose by centrifugation and suspended in 0.14 M KCl in 20 mM K-phosphate buffer at pH 7 (1 g tissue in 2 ml buffer). The reaction mixture contained: 75 μl of suspended homogenate; 100 μl of substrate solution containing 50 mM K-phosphate buffer pH 7.5, 2 MM MgCl2, 0.4 mM NADPH, and 50 μM L-kynurenine (final concentration),and 25 μl of different concentrations of inhibitor solutions. The reaction was stopped by addition of 200 μl of 1 M HClO4 after 60 min incubation. L-3-hydroxykynurenine formed was quantified by HPLC with coulometric detection at a working voltage of +0.2 V. The column was a 10 cm C18 reversed phase (3 μm. The mobile phase consisted of 950 ml distilled water, 20 ml acetonitrile, 9 ml triethylamine, 5.9 ml phosphoric acid, 100 mg sodium EDTA and 1.5 g heptanesulfonic acid. The flow rate was 1 ml/min.

T1 sequence (O88867 whole entry): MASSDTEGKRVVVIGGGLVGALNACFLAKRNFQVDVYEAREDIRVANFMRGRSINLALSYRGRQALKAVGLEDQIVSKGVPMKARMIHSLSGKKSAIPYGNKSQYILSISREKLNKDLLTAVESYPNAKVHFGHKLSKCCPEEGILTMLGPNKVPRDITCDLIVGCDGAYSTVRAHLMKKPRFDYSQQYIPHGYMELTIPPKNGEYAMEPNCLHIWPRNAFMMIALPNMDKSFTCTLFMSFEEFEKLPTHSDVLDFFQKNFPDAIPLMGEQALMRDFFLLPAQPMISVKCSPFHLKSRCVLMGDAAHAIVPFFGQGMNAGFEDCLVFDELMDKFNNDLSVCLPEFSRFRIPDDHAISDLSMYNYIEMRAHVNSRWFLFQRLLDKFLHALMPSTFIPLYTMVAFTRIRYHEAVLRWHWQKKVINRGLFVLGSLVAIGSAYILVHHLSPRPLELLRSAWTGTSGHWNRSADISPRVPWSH

Row | Structure (SMILES) | solubility ([1]; pH = 7.4) [mg/mL] | solubility ([1]; pH = 8) [mg/mL] | IC50 (kynurenine-3-hydroxylase [2]) [nM] | IC50 (kynurenine-3-hydroxylase [3]) [nM] | solubility ([1]; pH = 3) [mg/mL]
1 | NC(CC(=O)c1ccc(Cl)c(Cl)c1)C(=O)O (racemic) [PNU 156561, (R,S)-2-amino-4-(3',4'-dichlorophenyl)-4-oxo-butanoic acid hydrochloride, reference compound] | 0.2 | 15 |  |  | 
2 | NC(CC(=O)c1ccc(F)c(F)c1)C(=O)O (racemic) [PNU 156830, (R,S)-2-amino-4-(3',4'-difluorophenyl)-4-oxo-2-butanoic acid hydrochloride] | 18 | 36 | 420 | 120 | 38
3 | N[C@H](CC(=O)c1ccc(F)c(F)c1)C(=O)O [PNU 158392, (R)-2-amino-4-(3',4'-difluorophenyl)-4-oxo-2-butanoic acid hydrochloride] |  |  | 10900 |  | 
4 | N[C@@H](CC(=O)c1ccc(F)c(F)c1)C(=O)O [PNU 158393, (S)-2-amino-4-(3',4'-difluorophenyl)-4-oxo-2-butanoic acid hydrochloride] |  |  | 220 |  | 

From patent publication US5973006A, “Fluoro-substituted benzoylpropionic acid derivatives” (Pharmacia & Upjohn S.p.A., priority 1995, dated 1999)
